Laboratory results taken from patent publication US20230227546A1, “TYPE 2 CYTOKINES AS PREDICTORS OF DISEASE SEVERITY AND/OR AS T[…] FOR COVID-19” (priority 2020, published 2023).

System: COVID-19
Assay: Retrospective analysis of international COVID-19 cohort (TriNetX COVID-19 Research Network), Dupilumab
Type: in vivo, human
Details: for Risk Difference (95% CI), Deceased / Risk Difference (95% CI), Ventilated: with vs without Dupilumab
[1] = Diagnoses Matching, 65 patients with Dupilumab
[2] = Dupilumab prescribed prior to COVID-19 diagnosis
[3] = Full Cohort, 81 patients with Dupilumab

With “Dupilumab: anti-human IL4Rα monoclonal antibody that blocks IL-13 and IL-4 signaling; sold as DUPIXENT” the “Deceased (number of patients) With Dupilumab” value (1:1 Propensity Score Matching, 81 patients) was 0, the “Risk Difference (95% CI), Deceased” value (1:1 Propensity Score Matching) was 12.3% (5.2-19.5) and the “Serum C-Reactive Protein (CRP)” value (COVID-19 patients With Dupilumab) was 25.3 mg/L. The “Deceased (number of patients) With Dupilumab” value [1] was 0, the “Ventilated (number of patients) With Dupilumab” value [1] was 0 and the “Risk Difference (95% CI), Deceased” value (Diagnoses Matching) was 1.83% (1.69-1.97). The “Risk Difference (95% CI), Ventilated” value (Diagnoses Matching) was 0.67% (0.58-0.75), the “risk of death in COVID-19” value [2] was “lower risk” and the “risk of ventilation in COVID-19” value [2] was “lower risk”. The CRP levels (Dupilumab-prescribed patients with COVID-19) was “reduced”, the “Deceased (number of patients) With Dupilumab” value [3] was 0 and the “Ventilated (number of patients) With Dupilumab” value [3] was 0. For the same substance, the “Risk Difference (95% CI), Deceased” value (Full Cohort) was 1.98% (1.94-2.03), the “Risk Difference (95% CI), Ventilated” value (Full Cohort) was 0.37% (0.35-0.39) and the “CRP Sub-cohort Difference” value (With vs Without Dupilumab) was 12.
